The source of these data is US8309718B2, “4-pyrazolyl-N-arylpyrimidin-2-amines and 4-pyrazolyl-N-heteroarylpyrimidin-2-amines as janus kinase inhibitors” (Incyte Corporation, priority 2007, dated 2012).

T1 sequence (O60674 828-1132): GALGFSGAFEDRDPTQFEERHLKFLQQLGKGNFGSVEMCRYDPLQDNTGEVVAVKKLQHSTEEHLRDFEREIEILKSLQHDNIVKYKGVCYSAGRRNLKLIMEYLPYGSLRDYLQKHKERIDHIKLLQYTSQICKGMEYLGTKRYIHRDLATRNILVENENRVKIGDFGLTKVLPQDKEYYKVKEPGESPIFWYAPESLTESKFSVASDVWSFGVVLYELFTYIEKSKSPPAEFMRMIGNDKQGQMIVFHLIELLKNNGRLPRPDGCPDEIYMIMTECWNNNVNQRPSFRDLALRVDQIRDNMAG

The experiment addresses T1, human JAK2 (Homo sapiens, UniProt O60674).
T1 construct: JAK2 (a.a. 828-1132); His tag (N); made in house; host or cells: insect cells (baculovirus)
Put plainly: In vitro JAK kinase assay (HTRF, phosphorylation of biotinylated peptide). Type of experiment: biochemical. The settings on record: catalytic domain a.a. 828-1132, 30 μM ATP, 500 nM peptide, room temperature 1 hr; read-out: JAK-2 IC50. Put shortly: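 His-tagged human JAK2 catalytic domain (a.a. 828-1132), baculovirus/insect-cell expressed; phosphorylation of 500 nM biotinylated peptide at 30 μM ATP in 50 mM Tris pH 7.8, 100 mM NaCl, 5 mM DTT, 0.01% BSA. 1 h at room temperature, EDTA stop, HTRF read (Eu-Py20/SA-APC); IC50.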
For orientation: IC50 means the point on the concentration scale where inhibition reaches its midpoint. As for `N#CCC(C1CCCC1)n1cc(-c2ccnc(Nc3ccc(N4CCOCC4=O)cc3)n2)cn1` (racemic) [Example 98, 3-cyclopentyl-3-(4-(2-(4-(3-oxomorpholino)phenylamino)pyrimidin-4-yl)-1H-pyrazol-1-yl)propanenitrile], the IC50 is less than 100 nM.
As for `Cc1nccc(-c2cccc(Nc3nccc(-c4cnn(C(CC#N)C5CCCC5)c4)n3)c2)n1` (racemic) [Example 99, 3-cyclopentyl-3-(4-(2-(3-(2-methylpyrimidin-4-yl)phenylamino)pyrimidin-4-yl)-1H-pyrazol-1-yl)propanenitrile], the IC50 was less than 100 nM.
In the case of `COc1cnc(Nc2ccc(N3CCOCC3)cc2)nc1-c1cnn(C(CC#N)C2CCCC2)c1` (racemic) [Example 101, 3-cyclopentyl-3-(4-(5-methoxy-2-(4-morpholinophenylamino)pyrimidin-4-yl)-1H-pyrazol-1-yl)propanenitrile], the IC50 was less than 100 nM.
In the case of `COc1cnc(Nc2ccc(-n3cccn3)cc2)nc1-c1cnn(C(CC#N)C2CCCC2)c1` (racemic) [Example 102, 3-(4-(2-(4-(1H-pyrazol-1-yl)phenylamino)-5-methoxypyrimidin-4-yl)-1H-pyrazol-1-yl)-3-cyclopentylpropanenitrile], the IC50 was less than 100 nM.
`COc1cnc(Nc2ccc(NC(C)=O)cc2)nc1-c1cnn(C(CC#N)C2CCCC2)c1` (racemic) [Example 103, N-(4-(4-(1-(2-cyano-1-cyclopentylethyl)-1H-pyrazol-4-yl)-5-methoxypyrimidin-2-ylamino)phenyl)acetamide]: the IC50 is less than 100 nM.
For `COc1cnc(Nc2ccc(C(=O)N(C)C)cc2)nc1-c1cnn(C(CC#N)C2CCCC2)c1` (racemic) [Example 104, 4-(4-(1-(2-cyano-1-cyclopentylethyl)-1H-pyrazol-4-yl)-5-methoxypyrimidin-2-ylamino)-N,N-dimethylbenzamide], the IC50 was less than 100 nM.
With `N#CCC(C1CCCC1)n1cc(-c2ccnc(Nc3ccc(N4CCCCC4=O)cc3)n2)cn1` (racemic) [Example 105, 3-cyclopentyl-3-(4-(2-(4-(2-oxopiperidin-1-yl)phenylamino)pyrimidin-4-yl)-1H-pyrazol-1-yl)propanenitrile], the IC50 is less than 100 nM.
With `N#CCC(C1CCCC1)n1cc(-c2ccnc(Nc3ccc(N4CCCOC4=O)cc3)n2)cn1` (racemic) [Example 106, 3-cyclopentyl-3-(4-(2-(4-(2-oxo-1,3-oxazinan-3-yl)phenylamino)pyrimidin-4-yl)-1H-pyrazol-1-yl)propanenitrile], the IC50 is less than 100 nM.
With `N#CCC(C1CCCC1)n1cc(-c2ccnc(Nc3ccc(N4CCOC4=O)cc3)n2)cn1` (racemic) [Example 107, 3-cyclopentyl-3-(4-(2-(4-(2-oxooxazolidin-3-yl)phenylamino)pyrimidin-4-yl)-1H-pyrazol-1-yl)propanenitrile], the IC50 was less than 100 nM.
As to `N#CCC(C1CCCC1)n1cc(-c2ccnc(Nc3cccc(N)c3)n2)cn1` (racemic) [Example 108, 3-(4-(2-(3-aminophenylamino)pyrimidin-4-yl)-1H-pyrazol-1-yl)-3-cyclopentylpropanenitrile], the IC50 is less than 100 nM.
On to `CNC(=O)c1cccc(Nc2nccc(-c3cnn(C(CC#N)C4CCCC4)c3)n2)c1` (racemic) [Example 109, 3-(4-(1-(2-cyano-1-cyclopentylethyl)-1H-pyrazol-4-yl)pyrimidin-2-ylamino)-N-methylbenzamide], for which the IC50 is less than 100 nM.
Take `CN(C)C(=O)c1cccc(Nc2nccc(-c3cnn(C(CC#N)C4CCCC4)c3)n2)c1` (racemic) [Example 110, 3-(4-(1-(2-cyano-1-cyclopentylethyl)-1H-pyrazol-4-yl)pyrimidin-2-ylamino)-N,N-dimethylbenzamide]: the IC50 is less than 100 nM.
On to `N#CCC(C1CCCC1)n1cc(-c2ccnc(Nc3cccc(C(=O)N4CCC(O)CC4)c3)n2)cn1` (racemic) [Example 111, 3-cyclopentyl-3-(4-(2-(3-(4-hydroxypiperidine-1-carbonyl)phenylamino)pyrimidin-4-yl)-1H-pyrazol-1-yl)propanenitrile], for which the IC50 is less than 100 nM.
Consider `N#CCC(C1CCCC1)n1cc(-c2ccnc(Nc3cccc(C(=O)NCCO)c3)n2)cn1` (racemic) [Example 112, 3-(4-(1-(2-cyano-1-cyclopentylethyl)-1H-pyrazol-4-yl)pyrimidin-2-ylamino)-N-(2-hydroxyethyl)benzamide], for which the concentration for half-maximal inhibition (IC50) was less than 100 nM.
As to `CCS(=O)(=O)Nc1cccc(Nc2nccc(-c3cnn(C(CC#N)C4CCCC4)c3)n2)c1` (racemic) [Example 114, N-(3-(4-(1-(2-cyano-1-cyclopentylethyl)-1H-pyrazol-4-yl)pyrimidin-2-ylamino)phenyl)ethanesulfonamide], the IC50 is less than 100 nM.
For `CS(=O)(=O)Nc1cccc(Nc2nccc(-c3cnn(C(CC#N)C4CCCC4)c3)n2)c1` (racemic) [Example 115, N-(3-(4-(1-(2-cyano-1-cyclopentylethyl)-1H-pyrazol-4-yl)pyrimidin-2-ylamino)phenyl)methanesulfonamide] the value was less than 100 nM; for `COC(=O)Nc1cccc(Nc2nccc(-c3cnn(C(CC#N)C4CCCC4)c3)n2)c1` (racemic) [Example 116, Methyl 3-(4-(1-(2-cyano-1-cyclopentylethyl)-1H-pyrazol-4-yl)pyrimidin-2-ylamino)phenylcarbamate], less than 100 nM; for `CC(=O)Nc1cccc(Nc2nccc(-c3cnn(C(CC#N)C4CCCC4)c3)n2)c1` (racemic) [Example 117, N-(3-(4-(1-(2-cyano-1-cyclopentylethyl)-1H-pyrazol-4-yl)pyrimidin-2-ylamino)phenyl)acetamide], less than 100 nM.
Turning to `N#CCC(C1CCCC1)n1cc(-c2ccnc(Nc3cccc(NC(=O)CN4CCCC4)c3)n2)cn1` (racemic) [Example 118, N-(3-(4-(1-(2-cyano-1-cyclopentylethyl)-1H-pyrazol-4-yl)pyrimidin-2-ylamino)phenyl)-2-(pyrrolidin-1-yl)acetamide], the IC50 is less than 100 nM.
As to `CN1CCN(C(=O)c2ccc(Nc3nccc(-c4cnn(C(CC#N)C5CCCC5)c4)n3)cc2)CC1` (racemic) [Example 120, 3-cyclopentyl-3-(4-(2-(4-(4-methylpiperazine-1-carbonyl)phenylamino)pyrimidin-4-yl)-1H-pyrazol-1-yl)propanenitrile], the IC50 is less than 100 nM.
On to `N#CCC(C1CCCC1)n1cc(-c2ccnc(Nc3ccc(C(=O)N4CCN(CCO)CC4)cc3)n2)cn1` (racemic) [Example 121, 3-cyclopentyl-3-(4-(2-(4-(4-(2-hydroxyethyl)piperazine-1-carbonyl)phenylamino)pyrimidin-4-yl)-1H-pyrazol-1-yl)propanenitrile], for which the IC50 was less than 100 nM.
Next, `N#CCC(C1CCCC1)n1cc(-c2ccnc(Nc3ccc(C(=O)N4CCCC4)cc3)n2)cn1` (racemic) [Example 122, 3-cyclopentyl-3-(4-(2-(4-(pyrrolidine-1-carbonyl)phenylamino)pyrimidin-4-yl)-1H-pyrazol-1-yl)propanenitrile]: less than 100 nM; `N#CCC(C1CCCC1)n1cc(-c2ccnc(Nc3ccc(C(=O)N4CCNC(=O)C4)cc3)n2)cn1` (racemic) [Example 123, 3-cyclopentyl-3-(4-(2-(4-(3-oxopiperazine-1-carbonyl)phenylamino)pyrimidin-4-yl)-1H-pyrazol-1-yl)propanenitrile]: less than 100 nM; `N#CCC(C1CCCC1)n1cc(-c2ccnc(Nc3ccc(C(=O)N4CCC(O)CC4)cc3)n2)cn1` (racemic) [Example 124, 3-cyclopentyl-3-(4-(2-(4-(4-hydroxypiperidine-1-carbonyl)phenylamino)pyrimidin-4-yl)-1H-pyrazol-1-yl)propanenitrile]: less than 100 nM.
Regarding `CCCN(CC1CC1)C(=O)c1ccc(Nc2nccc(-c3cnn(C(CC#N)C4CCCC4)c3)n2)cc1` (racemic) [Example 125, 4-(4-(1-(2-cyano-1-cyclopentylethyl)-1H-pyrazol-4-yl)pyrimidin-2-ylamino)-N-(cyclopropylmethyl)-N-propylbenzamide], the IC50 is less than 100 nM.
`N#CCC(C1CCCC1)n1cc(-c2ccnc(Nc3ccc(C(=O)NCC4CC4)cc3)n2)cn1` (racemic) [Example 126, 4-(4-(1-(2-cyano-1-cyclopentylethyl)-1H-pyrazol-4-yl)pyrimidin-2-ylamino)-N-(cyclopropylmethyl)benzamide]: the IC50 is less than 100 nM.
With `N#CCC(C1CCCC1)n1cc(-c2ccnc(Nc3ccc(C(=O)N4CCC4)cc3)n2)cn1` (racemic) [Example 128, 3-(4-(2-(4-(azetidine-1-carbonyl)phenylamino)pyrimidin-4-yl)-1H-pyrazol-1-yl)-3-cyclopentylpropanenitrile], the IC50 is less than 100 nM.
Next, `N#CCC(C1CCCC1)n1cc(-c2ccnc(Nc3ccc(N4CCCC4=O)cc3)n2)cn1` (racemic) [Example 129, 3-cyclopentyl-3-(4-(2-(4-(2-oxopyrrolidin-1-yl)phenylamino)pyrimidin-4-yl)-1H-pyrazol-1-yl)propanenitrile]: less than 100 nM; `COc1cnc(Nc2ccc(N3CCCC3=O)cc2)nc1-c1cnn(C(CC#N)C2CCCC2)c1` (racemic) [Example 130, 3-cyclopentyl-3-(4-(5-methoxy-2-(4-(2-oxopyrrolidin-1-yl)phenylamino)pyrimidin-4-yl)-1H-pyrazol-1-yl)propanenitrile]: less than 100 nM; `COc1cnc(Nc2ccc(-c3cnco3)cc2)nc1-c1cnn(C(CC#N)C2CCCC2)c1` (racemic) [Example 131, 3-cyclopentyl-3-(4-(5-methoxy-2-(4-(oxazol-5-yl)phenylamino)pyrimidin-4-yl)-1H-pyrazol-1-yl)propanenitrile]: less than 100 nM.
